# From ChEMBL document CHEMBL1201862, “PubChem BioAssay data set” (2004)
# Calls of active or inactive are those of the source.
# Assays:
# [1] = target: Large T antigen (Simian virus 40, UniProt P03070); assay type: functional, Betapolyomavirus macacae;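 note: Confirmatory-stage PubChem screen for compounds that inhibit SV40 T antigen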
# [2] = cells; assay type: functional
# [3] = target: T1, Insulin-degrading enzyme (Homo sapiens, UniProt P14735); test: recombinant IDE activation, cell-free – biochemical, fluorescence polarization, counter-screen for IDE activator project, dose response (AID 588681)
# T1 sequence (P14735 whole entry): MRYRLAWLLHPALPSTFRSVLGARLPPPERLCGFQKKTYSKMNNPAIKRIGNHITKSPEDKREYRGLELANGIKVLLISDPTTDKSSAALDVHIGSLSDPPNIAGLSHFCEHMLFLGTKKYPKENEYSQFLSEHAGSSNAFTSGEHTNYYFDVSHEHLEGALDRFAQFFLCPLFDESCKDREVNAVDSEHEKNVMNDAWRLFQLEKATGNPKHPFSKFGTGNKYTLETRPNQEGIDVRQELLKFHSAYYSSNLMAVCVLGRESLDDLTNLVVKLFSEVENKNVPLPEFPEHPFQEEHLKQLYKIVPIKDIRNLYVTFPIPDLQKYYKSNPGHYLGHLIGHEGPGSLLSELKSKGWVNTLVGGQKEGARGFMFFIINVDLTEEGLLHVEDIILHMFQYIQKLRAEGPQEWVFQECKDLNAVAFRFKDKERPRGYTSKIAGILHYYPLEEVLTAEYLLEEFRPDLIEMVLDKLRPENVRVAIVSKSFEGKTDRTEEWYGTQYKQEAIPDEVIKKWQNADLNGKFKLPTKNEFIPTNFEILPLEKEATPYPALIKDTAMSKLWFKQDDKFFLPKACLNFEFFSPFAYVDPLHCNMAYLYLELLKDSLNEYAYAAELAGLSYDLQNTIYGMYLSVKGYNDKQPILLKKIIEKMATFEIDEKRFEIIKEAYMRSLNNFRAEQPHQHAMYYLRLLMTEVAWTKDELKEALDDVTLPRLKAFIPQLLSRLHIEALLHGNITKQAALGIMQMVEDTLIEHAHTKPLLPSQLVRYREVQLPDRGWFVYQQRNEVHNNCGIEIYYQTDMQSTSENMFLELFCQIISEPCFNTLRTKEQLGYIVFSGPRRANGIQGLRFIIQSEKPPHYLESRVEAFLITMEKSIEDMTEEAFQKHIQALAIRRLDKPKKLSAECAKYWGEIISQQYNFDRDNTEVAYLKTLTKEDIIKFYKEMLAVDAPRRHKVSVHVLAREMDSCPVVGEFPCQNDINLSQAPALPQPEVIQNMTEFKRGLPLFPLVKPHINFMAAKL
# [4] = target: T1, Insulin-degrading enzyme; test: cellular IDE activation of Abeta substrate cleavage – fluorescence polarization, HEK cells, dose response (AID 588439); assay type: functional, cell-based
# [5] = system: HEK293; test: membrane integrity loss in HEK cells – cell-based, fluorescence, cytotoxicity control for IDE activator project, dose response (AID 588440); assay type: functional; settings: Homo sapiens;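 note: cytotoxicity by LDH release measuring loss of membrane integrity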
# [6] = system: HEK293; test: optical interference in Abeta FP readout, dose response, artefact control for IDE activator project, biochemical, fluorescence polarization (AID 588442); assay type: functional, cell-based; settings: Homo sapiens
# [7] = target: T2, Rac GTPase-activating protein 1 (Homo sapiens, UniProt Q9H0H5); test: blockers of MgcRacGAP-driven Rac1 GTP hydrolysis – biochemical, ADP Hunter fluorescence, primary and confirmatory, confirmation (AID 624330); assay type: functional
# T2 sequence (Q9H0H5 whole entry): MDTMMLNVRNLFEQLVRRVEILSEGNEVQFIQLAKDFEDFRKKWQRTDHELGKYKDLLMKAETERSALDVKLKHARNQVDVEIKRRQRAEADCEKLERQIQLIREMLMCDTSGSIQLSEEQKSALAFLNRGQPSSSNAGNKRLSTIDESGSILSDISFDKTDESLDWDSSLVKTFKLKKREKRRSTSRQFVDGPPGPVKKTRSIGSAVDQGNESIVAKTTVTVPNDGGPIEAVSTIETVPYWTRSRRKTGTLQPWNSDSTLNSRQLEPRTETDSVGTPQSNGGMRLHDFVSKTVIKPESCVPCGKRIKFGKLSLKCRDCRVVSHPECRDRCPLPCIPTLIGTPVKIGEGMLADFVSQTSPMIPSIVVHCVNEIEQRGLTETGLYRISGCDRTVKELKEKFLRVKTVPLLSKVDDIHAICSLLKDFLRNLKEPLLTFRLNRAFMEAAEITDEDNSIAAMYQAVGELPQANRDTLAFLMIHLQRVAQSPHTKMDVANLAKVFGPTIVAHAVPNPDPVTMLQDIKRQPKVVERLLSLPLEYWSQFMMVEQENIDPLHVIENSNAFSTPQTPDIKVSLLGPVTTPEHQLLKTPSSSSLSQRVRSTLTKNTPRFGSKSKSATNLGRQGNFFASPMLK
# [8] = target: Ras and Rab interactor 1/Tyrosine-protein kinase ABL1 (Homo sapiens, UniProt P00519+Q13671); assay type: functional;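 note: biochemical TR-FRET dose-response test measuring inhibition of binding between Rin1 and Abl proteins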
# [9] = target: Cytochrome P450 3A4 (Homo sapiens, UniProt P08684);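 note: CYP3A4 tested as one member of a cytochrome P450 panel screen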
# Cytochrome P450 3A4, sequence (P08684 whole entry): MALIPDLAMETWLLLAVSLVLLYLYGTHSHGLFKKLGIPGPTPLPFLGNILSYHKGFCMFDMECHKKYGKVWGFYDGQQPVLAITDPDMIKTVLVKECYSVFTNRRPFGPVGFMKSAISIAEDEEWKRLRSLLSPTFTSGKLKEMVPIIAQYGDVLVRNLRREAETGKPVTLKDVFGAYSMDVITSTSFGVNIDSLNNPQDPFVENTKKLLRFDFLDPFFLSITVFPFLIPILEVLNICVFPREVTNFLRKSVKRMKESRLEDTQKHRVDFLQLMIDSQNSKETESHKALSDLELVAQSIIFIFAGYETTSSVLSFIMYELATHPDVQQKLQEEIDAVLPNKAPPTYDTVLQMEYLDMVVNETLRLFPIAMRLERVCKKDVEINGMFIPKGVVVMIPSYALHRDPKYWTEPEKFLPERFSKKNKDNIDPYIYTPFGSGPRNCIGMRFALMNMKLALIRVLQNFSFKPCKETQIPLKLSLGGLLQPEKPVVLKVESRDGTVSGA
# [10] = target: Cytochrome P450 2D6 (Homo sapiens, UniProt P10635);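 note: CYP2D6 member of a cytochrome P450 panel assay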
# Cytochrome P450 2D6, sequence (P10635 whole entry): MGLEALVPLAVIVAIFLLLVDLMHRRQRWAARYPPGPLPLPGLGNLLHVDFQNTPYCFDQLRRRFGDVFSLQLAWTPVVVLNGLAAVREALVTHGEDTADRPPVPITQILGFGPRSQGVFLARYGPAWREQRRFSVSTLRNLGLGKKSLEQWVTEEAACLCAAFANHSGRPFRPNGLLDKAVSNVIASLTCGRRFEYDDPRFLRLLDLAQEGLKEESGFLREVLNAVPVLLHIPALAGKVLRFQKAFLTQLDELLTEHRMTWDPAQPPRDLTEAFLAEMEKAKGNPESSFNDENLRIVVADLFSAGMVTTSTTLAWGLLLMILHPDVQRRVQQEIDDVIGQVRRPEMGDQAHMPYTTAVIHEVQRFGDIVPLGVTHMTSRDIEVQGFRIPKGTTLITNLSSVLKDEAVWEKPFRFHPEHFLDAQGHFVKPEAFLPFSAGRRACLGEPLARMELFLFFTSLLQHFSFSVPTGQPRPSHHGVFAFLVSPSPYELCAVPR
# [11] = target: Cytochrome P450 2C9 (Homo sapiens, UniProt P11712)
# Cytochrome P450 2C9, sequence (P11712 whole entry): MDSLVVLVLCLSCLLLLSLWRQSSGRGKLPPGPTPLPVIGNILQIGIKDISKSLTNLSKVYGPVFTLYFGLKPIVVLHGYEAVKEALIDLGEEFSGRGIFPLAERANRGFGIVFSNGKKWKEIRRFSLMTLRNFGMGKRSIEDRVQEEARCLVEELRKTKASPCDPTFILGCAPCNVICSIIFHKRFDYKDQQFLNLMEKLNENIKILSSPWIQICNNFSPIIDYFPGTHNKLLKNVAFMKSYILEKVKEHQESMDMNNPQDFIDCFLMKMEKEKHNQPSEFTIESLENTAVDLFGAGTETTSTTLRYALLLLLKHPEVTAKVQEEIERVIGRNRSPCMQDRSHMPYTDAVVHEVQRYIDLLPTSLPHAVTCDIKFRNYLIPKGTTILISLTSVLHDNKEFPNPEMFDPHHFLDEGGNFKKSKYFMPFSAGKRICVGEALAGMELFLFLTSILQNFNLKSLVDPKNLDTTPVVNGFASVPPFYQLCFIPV
# [12] = target: T3, High affinity choline transporter 1 (Homo sapiens, UniProt Q9GZV3); test: human choline transporter blockers, potency – cell-based, 5-point CRC, membrane potential dye, dose response (AID 504840); assay type: functional
# T3 sequence (Q9GZV3 whole entry): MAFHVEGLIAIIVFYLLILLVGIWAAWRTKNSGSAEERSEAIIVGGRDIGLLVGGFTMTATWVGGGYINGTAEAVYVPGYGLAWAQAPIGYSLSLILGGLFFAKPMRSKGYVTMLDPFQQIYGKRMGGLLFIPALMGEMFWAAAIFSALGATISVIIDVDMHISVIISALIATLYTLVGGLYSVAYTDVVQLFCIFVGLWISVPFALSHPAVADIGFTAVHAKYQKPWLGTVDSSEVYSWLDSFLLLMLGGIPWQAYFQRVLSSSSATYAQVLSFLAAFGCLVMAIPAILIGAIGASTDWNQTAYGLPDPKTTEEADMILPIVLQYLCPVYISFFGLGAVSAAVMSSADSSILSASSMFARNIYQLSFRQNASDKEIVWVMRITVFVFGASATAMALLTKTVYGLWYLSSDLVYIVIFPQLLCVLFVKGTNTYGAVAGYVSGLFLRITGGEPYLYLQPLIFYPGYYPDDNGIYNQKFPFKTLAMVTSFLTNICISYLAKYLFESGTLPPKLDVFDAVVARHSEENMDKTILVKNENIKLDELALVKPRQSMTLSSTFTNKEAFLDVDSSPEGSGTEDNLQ
# [13] = target: T3, High affinity choline transporter 1; test: human choline transporter blockers, potency – cell-based, 10-point CRC, membrane potential dye, dose response (AID 588401); assay type: functional;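 note: membrane potential dye fluorescence of choline-evoked depolarization via CHT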
# [14] = target: Mitogen-activated protein kinase 10 (Homo sapiens, UniProt P53779); test: Dose response biochemical screening assay for inhibitors of c-Jun N-Terminal Kinase 3 (JNK3). [Related pubchem assays: 746 ]
# Mitogen-activated protein kinase 10, sequence (P53779 whole entry): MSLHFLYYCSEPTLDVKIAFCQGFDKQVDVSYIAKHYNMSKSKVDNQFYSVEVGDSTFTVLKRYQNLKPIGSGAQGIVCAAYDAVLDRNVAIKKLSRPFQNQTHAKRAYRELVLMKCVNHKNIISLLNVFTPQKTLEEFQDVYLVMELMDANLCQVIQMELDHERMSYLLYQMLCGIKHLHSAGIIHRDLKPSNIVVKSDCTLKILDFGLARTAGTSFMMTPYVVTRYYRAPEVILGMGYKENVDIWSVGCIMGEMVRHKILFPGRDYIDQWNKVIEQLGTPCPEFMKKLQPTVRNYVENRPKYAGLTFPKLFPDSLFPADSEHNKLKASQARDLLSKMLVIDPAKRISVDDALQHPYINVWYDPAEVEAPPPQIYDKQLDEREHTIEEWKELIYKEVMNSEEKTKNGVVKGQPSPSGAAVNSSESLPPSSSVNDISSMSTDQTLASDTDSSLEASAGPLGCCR
# [15] = Trypanosoma cruzi growth suppression in host cells – NIH3T3 host cells, beta-gal luminescence, confirmation (AID 2044); assay type: functional, cell-based;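 note: intracellular parasites grown in NIH/3T3 mouse fibroblasts as host cells; luminescent beta-galactosidase reporter signal from transgenic T. cruzi replicating inside host cells; inhibitors lower the luminescence signal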
# [16] = NIH3T3 cell viability loss – ATP luminescence, mouse fibroblasts, counter-screen, dose response (AID 2010); assay type: functional, cell-based;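 note: cells exposed to compound for about 90 hours before reading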
# [17] = target: T4, Coagulation factor XII (Homo sapiens, UniProt P00748); assay type: functional;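 note: activated factor XIIa alpha cleaving a fluorogenic AMC peptide substrate; inhibitor potency from loss of enzyme activity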
# T4 sequence (P00748 whole entry): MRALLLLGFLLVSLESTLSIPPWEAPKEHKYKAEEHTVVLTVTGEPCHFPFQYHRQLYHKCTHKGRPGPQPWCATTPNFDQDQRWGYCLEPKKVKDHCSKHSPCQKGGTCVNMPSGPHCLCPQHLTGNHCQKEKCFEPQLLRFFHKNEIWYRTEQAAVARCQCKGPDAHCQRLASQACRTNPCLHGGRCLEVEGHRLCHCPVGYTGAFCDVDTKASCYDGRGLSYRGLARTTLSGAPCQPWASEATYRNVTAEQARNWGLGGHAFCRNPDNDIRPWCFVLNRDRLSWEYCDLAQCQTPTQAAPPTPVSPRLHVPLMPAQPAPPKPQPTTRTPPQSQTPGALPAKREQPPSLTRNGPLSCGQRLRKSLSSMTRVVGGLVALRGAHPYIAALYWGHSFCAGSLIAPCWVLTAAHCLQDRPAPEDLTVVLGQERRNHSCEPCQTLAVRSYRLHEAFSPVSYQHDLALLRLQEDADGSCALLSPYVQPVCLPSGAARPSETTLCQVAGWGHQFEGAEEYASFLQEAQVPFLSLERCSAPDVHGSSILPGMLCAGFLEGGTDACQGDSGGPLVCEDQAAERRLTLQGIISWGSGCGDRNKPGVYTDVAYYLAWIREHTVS
# [18] = target: Latent membrane protein 1 (Human herpesvirus 4 (strain B95-8), UniProt P03230); test: LMP1 TES1 pathway selectivity over dsRED control – imaging, HEK293T, dual-color eGFP/dsRED, cherry-picks, selectivity assay for LMP1 NF-kB inhibitor project, dose response (AID 588398); assay type: functional, cell-based
# Latent membrane protein 1, sequence (P03230 whole entry): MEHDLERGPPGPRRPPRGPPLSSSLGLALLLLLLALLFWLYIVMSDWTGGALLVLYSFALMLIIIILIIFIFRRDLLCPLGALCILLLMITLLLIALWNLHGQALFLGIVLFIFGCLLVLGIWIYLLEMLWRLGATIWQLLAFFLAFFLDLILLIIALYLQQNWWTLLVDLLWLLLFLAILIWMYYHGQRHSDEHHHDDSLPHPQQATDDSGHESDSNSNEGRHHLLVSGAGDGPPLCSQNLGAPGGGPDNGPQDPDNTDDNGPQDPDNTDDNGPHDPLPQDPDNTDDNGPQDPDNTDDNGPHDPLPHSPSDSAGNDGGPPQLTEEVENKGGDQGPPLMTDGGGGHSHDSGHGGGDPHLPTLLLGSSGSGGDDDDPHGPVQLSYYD
# [19] = target: T5, Polyadenylate-binding protein 1 (Homo sapiens, UniProt P11940); test: MLLE binding blockers, Cy5 peptide tracer – biochemical, fluorescence polarization, Cy5-PAM2 peptide, secondary, miRNA deadenylation inhibitor project, dose response (AID 602260); assay type: functional; settings: read-out: IC50_Mean
# T5 sequence (P11940 whole entry, the tested form may be a part): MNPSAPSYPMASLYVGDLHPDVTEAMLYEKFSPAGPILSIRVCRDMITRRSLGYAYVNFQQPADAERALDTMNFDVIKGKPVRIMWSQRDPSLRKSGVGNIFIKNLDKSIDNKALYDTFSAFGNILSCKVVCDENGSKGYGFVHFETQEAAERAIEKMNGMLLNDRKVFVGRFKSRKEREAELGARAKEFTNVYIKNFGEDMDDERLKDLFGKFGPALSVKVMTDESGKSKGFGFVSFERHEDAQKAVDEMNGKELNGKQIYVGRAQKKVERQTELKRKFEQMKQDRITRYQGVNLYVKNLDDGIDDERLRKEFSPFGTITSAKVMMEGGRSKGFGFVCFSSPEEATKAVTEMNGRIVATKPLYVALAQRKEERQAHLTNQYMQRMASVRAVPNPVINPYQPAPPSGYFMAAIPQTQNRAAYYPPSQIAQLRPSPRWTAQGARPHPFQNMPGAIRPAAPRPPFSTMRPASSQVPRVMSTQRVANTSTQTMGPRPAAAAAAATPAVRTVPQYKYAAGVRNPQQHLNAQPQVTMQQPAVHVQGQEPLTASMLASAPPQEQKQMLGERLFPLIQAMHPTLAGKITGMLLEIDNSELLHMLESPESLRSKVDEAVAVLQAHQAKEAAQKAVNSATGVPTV
# [20] = target: T5, Polyadenylate-binding protein 1; test: MLLE domain peptide-binding blockers, IC50 – biochemical, fluorescence polarization, FITC-PAM2 peptide, dose response (AID 602259); assay type: functional; settings: read-out: IC50_Mean
# [21] = system: Streptococcus sp. 'group A'; test: Streptococcus pyogenes SK(-)GAS viability under kanamycin – luminescence, BacTiterGlo, confirmation, counter-screen for streptokinase expression inhibitor project, dose response (AID 1900); assay type: functional, organism-based
# [22] = target: T6, Streptokinase A (Streptococcus pyogenes serotype M1, UniProt P10520); test: viability-normalized secreted streptokinase activity reduction – plasminogen activation absorbance, OD405, dose response (AID 1914); assay type: functional, Streptococcus pyogenes M1 GAS;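 note: secreted streptokinase activity via plasminogen activation per viability signal from cell pellet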
# T6 sequence (P10520 whole entry): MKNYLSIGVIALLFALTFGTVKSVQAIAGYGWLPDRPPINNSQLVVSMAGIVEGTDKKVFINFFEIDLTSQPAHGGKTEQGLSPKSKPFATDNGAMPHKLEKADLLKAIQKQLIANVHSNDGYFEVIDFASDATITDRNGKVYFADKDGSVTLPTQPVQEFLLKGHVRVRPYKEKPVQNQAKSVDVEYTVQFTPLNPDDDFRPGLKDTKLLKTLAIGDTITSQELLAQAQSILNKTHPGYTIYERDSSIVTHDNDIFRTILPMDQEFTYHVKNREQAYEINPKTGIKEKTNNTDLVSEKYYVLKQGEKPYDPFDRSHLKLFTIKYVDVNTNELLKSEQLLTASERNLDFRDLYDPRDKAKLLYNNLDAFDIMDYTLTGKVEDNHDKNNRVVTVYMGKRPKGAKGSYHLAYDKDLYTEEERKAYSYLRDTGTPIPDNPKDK
# [23] = system: Streptococcus; test: GAS UMAA2166 growth inhibition – luminescence, BacTiterGlo, counter-screen for streptokinase expression inhibitor project, dose response (AID 1915); assay type: functional, organism-based;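 note: potency for reduction of bacterial viability or growth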
# [24] = target: G-protein coupled receptor 55 (Homo sapiens, UniProt Q9Y2T6); test: selective activators of receptor GPR55 – imaging, U2OS cells, beta-arrestin-GFP redistribution, primary screen (AID 1961); assay type: functional
# G-protein coupled receptor 55, sequence (Q9Y2T6 whole entry): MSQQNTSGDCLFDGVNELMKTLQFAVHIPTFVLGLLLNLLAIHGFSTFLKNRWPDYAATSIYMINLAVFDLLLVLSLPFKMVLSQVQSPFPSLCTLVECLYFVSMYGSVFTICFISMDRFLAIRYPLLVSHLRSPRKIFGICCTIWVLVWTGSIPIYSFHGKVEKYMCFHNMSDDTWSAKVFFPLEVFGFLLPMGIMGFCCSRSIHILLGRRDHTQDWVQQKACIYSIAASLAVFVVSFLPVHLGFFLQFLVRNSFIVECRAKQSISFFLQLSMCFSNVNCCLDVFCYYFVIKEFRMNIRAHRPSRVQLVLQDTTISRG
# [25] = Luminescence Cell-Based Dose Retest to Confirm Inhibitors of Cancer Stem Cells. [Related pubchem assays (depositor defined):AID2717, AID2721]; assay type: functional; settings: Homo sapiens
# [26] = target: Disintegrin and metalloproteinase domain-containing protein 17 (Homo sapiens, UniProt P78536); test: inhibition of ADAM17 substrate cleavage – biochemical, quenched FRET substrate, counter-screen for ADAM10 exosite inhibitor project, dose response (AID 743253)
# Disintegrin and metalloproteinase domain-containing protein 17, sequence (P78536 whole entry, the tested form may be a part): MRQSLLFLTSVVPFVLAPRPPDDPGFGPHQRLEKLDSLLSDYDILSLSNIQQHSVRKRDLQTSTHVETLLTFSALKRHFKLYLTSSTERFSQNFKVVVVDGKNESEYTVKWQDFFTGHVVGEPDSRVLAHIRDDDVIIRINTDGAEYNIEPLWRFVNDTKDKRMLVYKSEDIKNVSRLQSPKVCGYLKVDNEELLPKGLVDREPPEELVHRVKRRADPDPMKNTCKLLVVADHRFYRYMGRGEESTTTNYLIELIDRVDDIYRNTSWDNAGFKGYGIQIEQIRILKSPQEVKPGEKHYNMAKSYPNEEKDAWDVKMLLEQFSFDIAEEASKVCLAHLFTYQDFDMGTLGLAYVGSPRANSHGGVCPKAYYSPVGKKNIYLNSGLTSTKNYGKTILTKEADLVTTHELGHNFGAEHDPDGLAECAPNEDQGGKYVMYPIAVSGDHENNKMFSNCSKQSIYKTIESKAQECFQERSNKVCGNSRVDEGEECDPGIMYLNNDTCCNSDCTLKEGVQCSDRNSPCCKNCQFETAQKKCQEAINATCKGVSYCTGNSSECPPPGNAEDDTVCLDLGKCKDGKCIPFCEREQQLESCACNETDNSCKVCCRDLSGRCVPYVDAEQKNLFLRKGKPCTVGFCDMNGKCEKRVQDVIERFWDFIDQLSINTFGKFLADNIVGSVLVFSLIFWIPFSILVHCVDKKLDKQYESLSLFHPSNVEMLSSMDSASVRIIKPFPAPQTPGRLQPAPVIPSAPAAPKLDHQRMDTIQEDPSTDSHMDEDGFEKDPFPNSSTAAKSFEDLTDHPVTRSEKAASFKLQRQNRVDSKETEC
# Large T antigen, sequence (P03070 whole entry): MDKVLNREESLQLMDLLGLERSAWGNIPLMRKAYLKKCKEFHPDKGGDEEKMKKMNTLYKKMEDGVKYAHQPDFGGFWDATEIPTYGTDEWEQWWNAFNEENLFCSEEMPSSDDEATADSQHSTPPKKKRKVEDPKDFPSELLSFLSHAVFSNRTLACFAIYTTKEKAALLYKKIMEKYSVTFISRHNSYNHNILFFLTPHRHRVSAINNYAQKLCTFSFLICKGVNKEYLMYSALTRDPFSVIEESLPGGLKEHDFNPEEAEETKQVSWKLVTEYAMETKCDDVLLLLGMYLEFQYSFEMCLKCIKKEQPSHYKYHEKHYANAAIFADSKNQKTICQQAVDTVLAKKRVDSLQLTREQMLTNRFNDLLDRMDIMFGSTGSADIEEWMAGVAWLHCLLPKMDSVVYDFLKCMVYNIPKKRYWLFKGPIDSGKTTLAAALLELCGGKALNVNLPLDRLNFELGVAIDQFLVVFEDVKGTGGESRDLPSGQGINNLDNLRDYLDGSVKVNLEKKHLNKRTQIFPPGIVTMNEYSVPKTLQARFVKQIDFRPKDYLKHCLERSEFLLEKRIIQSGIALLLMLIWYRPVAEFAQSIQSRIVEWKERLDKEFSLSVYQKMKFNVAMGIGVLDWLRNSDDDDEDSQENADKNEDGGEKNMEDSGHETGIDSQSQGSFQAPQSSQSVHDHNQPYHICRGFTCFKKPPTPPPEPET
smiles,measurement,setting,value
C/C(CC(=O)Nc1ccc(N(C)C)cc1)=N\NC(=O)c1ccncc1,IC50,[1],13.7 µM (active)
same,IC50,[2],0.31 µM (active)
same,EC50,[3],26 µM (inactive)
same,EC50,[4],> 54.7 µM (inactive)
same,IC50,[5],> 89.2 µM (inactive)
same,EC50,[6],> 55.9 µM (inactive)
same,IC50,[7],56.8 µM (active)
COCCNC(=O)c1cc2c3ccccc3n(C)c2s1,IC50,[8],14.6 µM (inactive)
same,AC50,[9],28.2 µM (inconclusive)
same,AC50,[10],inconclusive
same,AC50,[11],inconclusive
Cc1cc(NS(=O)(=O)c2ccc(NC(=O)C(C)Oc3cccc(C)c3C)cc2)nc(C)n1 (configuration not stated),IC50,[12],10 µM (active)
same,IC50,[13],7.23 µM (active)
O=C(Nc1cccnc1)c1ccc(COc2ccccc2Br)o1,IC50,[14],> 93.1 µM (not active)
same,IC50,[12],3.28 µM (active)
same,IC50,[13],1.5 µM (active)
C=CCn1c(O)c(N=NC(S)=Nc2ccccc2F)c2cc(S(=O)(=O)N3CCOCC3)ccc21,EC50,[15],0.495 µM (active)
same,EC50,[16],2.84 µM (active)
same,IC50,[17],> 50 µM (inconclusive)
same,AC50,[18],38.3 µM (active)
same,IC50,[19],> 66 µM (inactive)
same,IC50,[20],> 66 µM (inactive)
C=C(C)COc1ccc(-c2n[nH]cc2Oc2ccc(OC)cc2)c(O)c1,EC50,[21],6.87 µM (active)
same,EC50,[22],37.4 µM (active)
same,EC50,[23],25.8 µM (active)
same,EC50,[24],> 32 µM (inactive)
same,AC50,[25],5.47 µM (active)
same,EC50,[3],> 54.7 µM (inactive)
same,EC50,[4],20.7 µM (inactive)
same,IC50,[5],31.4 µM (inactive)
same,EC50,[6],> 54.7 µM (inactive)
same,IC50,[26],12 µM (inactive)
